Where two headings read alike, the source gives them in different places. Starred links: 1 amine or outer side, 2 acyl side, 3 side chain; linkers in the order of their positions; H or OH if unused. Non-standard residues stand in square brackets, D forms with d. Residues, ends and D or L forms follow the SMILES beside them. Groups on a side chain read outwards from the residue. *: point of attachment. C20 diacid = O=C(O)CCCCCCCCCCCCCCCCCCC(=O)*; γGlu = O=C(O)[C@H](CCC(=O)[*:2])N[*:1]; αMeK = C[C@](N)(CCCCN)C(=O)O; AEEA = NCCOCCOCC(=O)O; Aib = CC(C)(N)C(=O)O
Target: T1, human GLP-1R (Homo sapiens, UniProt P43220)
T1 construct: expressed in transfected cells; host or cells: CHO-K1 clonal cell line
T1 sequence (P43220 24-463): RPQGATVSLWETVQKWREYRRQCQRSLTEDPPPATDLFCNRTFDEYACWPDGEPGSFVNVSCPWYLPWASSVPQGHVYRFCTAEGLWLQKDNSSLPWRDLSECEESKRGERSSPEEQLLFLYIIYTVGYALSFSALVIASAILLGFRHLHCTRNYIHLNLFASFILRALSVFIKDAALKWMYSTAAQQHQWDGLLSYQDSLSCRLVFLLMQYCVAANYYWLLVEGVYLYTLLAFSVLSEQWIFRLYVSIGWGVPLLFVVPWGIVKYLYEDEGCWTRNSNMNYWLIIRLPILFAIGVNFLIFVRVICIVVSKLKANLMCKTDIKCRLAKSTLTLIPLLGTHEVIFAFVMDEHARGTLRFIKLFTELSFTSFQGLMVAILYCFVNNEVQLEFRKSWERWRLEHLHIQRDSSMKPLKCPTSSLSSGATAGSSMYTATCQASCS
Assay: cAMP HTRF agonist activity assay in CHO-K1 cells expressing GLP-1R; for Activity against human GLP-1R (EC50 nM): 5% FBS, 0.1% Casein
Format: cell-based
Description: Functional activity was determined in CHO-K1 clonal cell lines expressing GIPR, GLP-1R, and GCGR. […] Each recipient cell (5000 cells/well) was added to an SV 96-well plate (Cisbio, 66PL96025) and incubated with the prepared polypeptide at 37°Cfor 30 min. The resulting increase in intracellular cAMP was quantitatively measured using the cAMP-GS dynamic HTRF assay kit (Cisbio, 62AM4PEJ). Briefly, the intracellular cAMP levels were determined by adding cAMP-d2 conjugate in cell lysis buffer, followed by the antibody anti-cAMP-Eu cryptate (also in cell lysis buffer).
Using the maximum response percentage vs. the added polypeptide concentration, the relative EC50 values were derived through nonlinear regression analysis and fitted to a four-parameter logarithmic equation. For specific data, refer to Tables 7-1 to 7-8 below. […]

[1] = read-out: Activity against human GLP-1R (EC50 nM)

Row | SMILES | EC50 | EC50 [1]
1 | CC[C@H](C)[C@H](NC(=O)[C@H](CC(C)C)NC(=O)[C@H](Cc1c[nH]c2ccccc12)NC(=O)[C@H](CCC(=O)O)NC(=O)[C@@H](NC(=O)[C@H](Cc1ccccc1)NC(=O)[C@H](CCC(=O)O)NC(=O)[C@H](CCC(N)=O)NC(=O)[C@H](C)NC(=O)[C@H](C)NC(=O)[C@H](CCCCN)NC(=O)[C@H](CCCCNC(=O)COCCOCCNC(=O)COCCOCCNC(=O)CC[C@H](NC(=O)CCCCCCCCCCCCCCCCCCC(=O)O)C(=O)O)NC(=O)[C@H](CCC(=O)O)NC(=O)[C@H](CC(C)C)NC(=O)[C@H](Cc1ccc(O)cc1)NC(=O)[C@](C)(CCCCN)NC(=O)[C@H](CO)NC(=O)[C@H](Cc1ccc(O)cc1)NC(=O)[C@H](CC(=O)O)NC(=O)[C@H](CO)NC(=O)[C@@H](NC(=O)[C@H](Cc1ccccc1)NC(=O)[C@@H](NC(=O)CNC(=O)[C@H](Cc1c[nH]cn1)NC(=O)C(C)(C)NC(=O)[C@@H](N)Cc1c[nH]cn1)[C@@H](C)O)[C@@H](C)O)C(C)C)C(=O)N[C@@H](CCC(=O)O)C(=O)NCC(=O)NCC(=O)N1CCC[C@H]1C(=O)N[C@@H](CO)C(=O)N[C@@H](CO)C(=O)NCC(=O)N[C@@H](C)C(=O)N1CCC[C@H]1C(=O)N1CCC[C@H]1C(=O)N1CCC[C@H]1C(=O)N[C@@H](CO)C(N)=O [Compound 0115] (H-H[Aib]HGTFTSDYS[αMeK]YLEK([AEEA-AEEA-γGlu-C20 diacid])KAAQEFVEWLIEGGPSSGAPPPS-NH2) | 0.023 nM | –
2 | CC(C)C[C@H](NC(=O)[C@H](CC(C)C)NC(=O)[C@H](Cc1c[nH]c2ccccc12)NC(=O)[C@H](CCC(=O)O)NC(=O)[C@@H](NC(=O)[C@H](Cc1ccccc1)NC(=O)[C@H](CCC(=O)O)NC(=O)[C@H](CCC(N)=O)NC(=O)[C@H](C)NC(=O)[C@H](C)NC(=O)[C@H](CCCCN)NC(=O)[C@H](CCCCNC(=O)COCCOCCNC(=O)COCCOCCNC(=O)CC[C@H](NC(=O)CCCCCCCCCCCCCCCCCCC(=O)O)C(=O)O)NC(=O)[C@H](CCC(=O)O)NC(=O)[C@H](CC(C)C)NC(=O)C(C)(C)NC(=O)[C@H](CCCCN)NC(=O)[C@H](CO)NC(=O)[C@H](Cc1ccc(O)cc1)NC(=O)[C@H](CC(=O)O)NC(=O)[C@H](CO)NC(=O)[C@@H](NC(=O)[C@H](Cc1ccccc1)NC(=O)[C@@H](NC(=O)CNC(=O)[C@H](Cc1c[nH]cn1)NC(=O)C(C)(C)NC(=O)[C@@H](N)Cc1c[nH]cn1)[C@@H](C)O)[C@@H](C)O)C(C)C)C(=O)N[C@@H](C)C(=O)NCC(=O)NCC(=O)N1CCC[C@H]1C(=O)N[C@@H](CO)C(=O)N[C@@H](CO)C(=O)NCC(=O)N[C@@H](C)C(=O)N1CCC[C@H]1C(=O)N1CCC[C@H]1C(=O)N1CCC[C@H]1C(=O)N[C@@H](CO)C(N)=O [Compound 0107] | – | 0.016 nM
3 | CC[C@H](C)[C@H](NC(=O)[C@H](CO)NC(=O)[C@H](Cc1ccc(O)cc1)NC(=O)[C@H](CC(=O)O)NC(=O)[C@H](CO)NC(=O)[C@@H](NC(=O)[C@H](Cc1ccccc1)NC(=O)[C@@H](NC(=O)CNC(=O)[C@H](CCC(N)=O)NC(=O)C(C)(C)NC(=O)[C@@H](N)Cc1c[nH]cn1)[C@@H](C)O)[C@@H](C)O)C(=O)N[C@@H](CC(C)C)C(=O)N[C@@H](CC(C)C)C(=O)N[C@@H](CCC(=O)O)C(=O)N[C@@H](CCCCNC(=O)COCCOCCNC(=O)COCCOCCNC(=O)CC[C@H](NC(=O)CCCCCCCCCCCCCCCCCCC(=O)O)C(=O)O)C(=O)N[C@@H](CCCCN)C(=O)N[C@@H](C)C(=O)N[C@@H](C)C(=O)N[C@@H](CCC(N)=O)C(=O)N[C@@H](CCC(=O)O)C(=O)N[C@@H](Cc1ccccc1)C(=O)N[C@H](C(=O)N[C@@H](CCC(=O)O)C(=O)N[C@@H](Cc1c[nH]c2ccccc12)C(=O)N[C@@H](CC(C)C)C(=O)N[C@@H](CC(C)C)C(=O)N[C@@H](C)C(=O)NCC(=O)NCC(=O)N1CCC[C@H]1C(=O)N[C@@H](CO)C(=O)N[C@@H](CO)C(=O)NCC(=O)N[C@@H](C)C(=O)N1CCC[C@H]1C(=O)N1CCC[C@H]1C(=O)N1CCC[C@H]1C(=O)N[C@@H](CO)C(N)=O)C(C)C [Compound 0154] (H-H[Aib]QGTFTSDYSILLEK([AEEA-AEEA-γGlu-C20 diacid])KAAQEFVEWLLAGGPSSGAPPPS-NH2) | – | 0.033 nM
